One assay deals with T1, Fpn-C2-E219A (Mus musculus, UniProt Q9JHI9, DEL251-290/DEL401-449/E219A).
T1 construct: generated from full-length mouse Fpn (UniProt: Q9JHI9); GFP (C); made in house; host or cells: Sf9 insect cells (baculovirus)
T1 sequence (Q9JHI9 with tags, fused parts or gaps E219A/DEL251-290/DEL401-449): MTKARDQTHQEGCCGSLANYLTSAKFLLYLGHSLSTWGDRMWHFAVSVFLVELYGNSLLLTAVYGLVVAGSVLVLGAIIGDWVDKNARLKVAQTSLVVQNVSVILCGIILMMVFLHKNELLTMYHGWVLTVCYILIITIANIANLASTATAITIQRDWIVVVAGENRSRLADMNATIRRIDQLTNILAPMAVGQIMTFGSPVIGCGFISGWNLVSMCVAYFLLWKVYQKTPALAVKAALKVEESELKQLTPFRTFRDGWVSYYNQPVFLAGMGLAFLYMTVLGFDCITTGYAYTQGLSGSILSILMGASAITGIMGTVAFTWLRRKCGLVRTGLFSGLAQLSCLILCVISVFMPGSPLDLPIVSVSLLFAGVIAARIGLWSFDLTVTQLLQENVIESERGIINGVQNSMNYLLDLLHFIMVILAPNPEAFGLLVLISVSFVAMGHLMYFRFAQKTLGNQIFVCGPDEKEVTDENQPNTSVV
The assay is described as follows: Isothermal titration calorimetry, Fpn-C2-E219A mutant. It is filed as binding. An excerpt:
To obtain a purified mammalian Fpn protein conducive for biophysical studies, we generated a protein construct with an increased thermal stability (Deshpande et al., 2018). In brief, the construct (Fpn-C2) was generated from full-length mouse Fpn (UniProt: Q9JHI9 [https://www.uniprot.org/uniprot/Q9JHI9]) by deleting two-loop regions (residues 251–290 and 401–449), followed by an overlapping PCR incorporating the E219A mutation to generate Fpn-C2-E219A. […]
For Fpn-C2 and Fpn-C2-E219A purification (Deshpande et al., 2018), Sf9 cells were thawed at room temperature with the addition of 2 μl Benzonase (250 units/μL, Sigma-Aldrich), 1 mM MgSO4, 0.2 mM PMSF, and lysed by a single pass through cooled EmulsiFlex-C3 homogenizer (Avestin). […] The SEC eluted protein was concentrated to ~10 mg/ml as determined by the BCA assay (Thermo Fisher Scientific) method and stored at −80 °C until further use. […]
In each experiment, the protein solution was loaded into the sample cell, and the ligand solution was loaded in the syringe. […] To obtain the effective heat of binding, the heat of dilution, measured by injecting the ligand solution alone into buffer, was subtracted prior to data analysis. […]
Background: ITC needs no label: the signal is the heat of the interaction.

In another assay the target is BbFpn N196A (Bdellovibrio bacteriovorus, UniProt Q6MLJ0, N196A). In words: Isothermal titration calorimetry, N196A BbFpn. It is filed as binding, Bdellovibrio bacteriovorous.
Chain of BbFpn N196A (Q6MLJ0 whole entry N196A): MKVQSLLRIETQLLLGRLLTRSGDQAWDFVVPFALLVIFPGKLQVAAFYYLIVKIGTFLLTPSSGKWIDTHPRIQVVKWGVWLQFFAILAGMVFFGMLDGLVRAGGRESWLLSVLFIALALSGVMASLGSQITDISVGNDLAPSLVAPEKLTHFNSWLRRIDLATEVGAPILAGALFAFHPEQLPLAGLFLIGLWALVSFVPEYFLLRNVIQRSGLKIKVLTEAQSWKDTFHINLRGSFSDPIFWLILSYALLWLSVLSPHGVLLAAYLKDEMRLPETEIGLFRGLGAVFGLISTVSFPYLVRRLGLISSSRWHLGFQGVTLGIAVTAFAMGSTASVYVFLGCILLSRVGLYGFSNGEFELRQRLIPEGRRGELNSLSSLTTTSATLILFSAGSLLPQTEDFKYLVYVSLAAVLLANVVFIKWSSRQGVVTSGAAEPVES
The target of another assay is BbFpn D24A (Bdellovibrio bacteriovorus, UniProt Q6MLJ0, D24A). In words: Isothermal titration calorimetry, D24A BbFpn. It is filed as binding, Bdellovibrio bacteriovorous.
Chain of BbFpn D24A (Q6MLJ0 whole entry D24A): as the sequence (Q6MLJ0 whole entry N196A) above, with D24A, A196N counted along it
The target of the next assay is BbFpn E203A (Bdellovibrio bacteriovorus, UniProt Q6MLJ0, E203A). The assay is described as follows: Isothermal titration calorimetry, E203A BbFpn. It counts as binding, Bdellovibrio bacteriovorous.
Chain of BbFpn E203A (Q6MLJ0 whole entry E203A): as the sequence (Q6MLJ0 whole entry N196A) above, with A196N, E203A counted along it

Turning to `[Ca+2]` [Ca^2+, calcium], the “Binding to Fpn-C2-E219A by ITC (in words)” value on Fpn-C2-E219A is given as “no binding”. Besides, at BbFpn N196A, the “Binding to N196A BbFpn by ITC (in words)” value is recorded as “complete loss”. The “Binding to D24A BbFpn by ITC (in words)” value at BbFpn D24A is given as “complete loss”. Further, the “Binding to E203A BbFpn by ITC (in words)” value on BbFpn E203A is “complete loss”.
